# Test results from the METLIN SMRT retention time set (Domingo-Almenara et al. 2019).
# Assay: gradient 5% acetonitrile 3 min, to 50% in 2 min, to 85% in 15 min, held 3 min, 100 µL/min
# Details: column: Zorbax Extend-C18 2.1 x 50 mm; eluents: water / acetonitrile, 0.1% formic acid
# In short: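 Over 3 months, pure standards in mixtures of ~100 molecules were run by HPLC coupled to a quadrupole time-of-flight mass spectrometer in positive and negative ionization mode. The column was a Zorbax Extend-C18 (2.1 × 50 mm, 1.8 μm) at 100 μL/min, eluted with water and acetonitrile each holding 0.1% formic acid, with 40 μL dead and 900 μL dwell volumes. Retention time was determined from adduct peaks chosen by software and checked manually.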
row,SMILES,RP-LC retention time [s]
1,O=C(c1ccc2nc[nH]c2c1)N1CCN(c2cc(-c3cccs3)[nH]n2)CC1,594
2,O=C1NC(C(=O)Nc2ccc(F)cc2)Cn2cccc21 (stereo not drawn),666
3,CCOc1ccc(NC(=O)C2CC(=O)N(CCc3c[nH]c4ccc(F)cc34)C2)cc1 (stereo not drawn),811
4,CCc1noc(-c2cccnc2N2CCCN(Cc3ccccc3F)CC2)n1,662
5,O=C(Cc1csc2nc(-c3ccccc3)cn12)NCc1ccco1,696
6,CC(C)N1CC(CNC(=O)c2ccco2)C2(CCCCC2)C1 (stereo not drawn),593
7,Cc1cc2c(c(=O)n(-c3ccccc3)c(=O)n2CC(=O)Nc2cccc(C#N)c2)n1C,784
8,Cc1nc2cc(-c3noc(-c4cccc(F)c4)n3)ccc2n(C)c1=O,1020
9,Clc1ccc(-c2nnc(-c3nc(NCc4cccnc4)c4ccccc4n3)o2)cc1,680
10,Cc1nc2cc(-c3noc(-c4ccc(C#N)cc4)n3)ccc2n(C(C)C)c1=O,929
11,COc1ccc(/C=C/C(=O)Nc2ccccc2C(=O)O)cc1OC,927
12,COc1ccc(Cl)c(Nc2nc3ccccc3nc2NS(=O)(=O)c2cccc(NC(=O)C(C)(C)N)c2)c1,879
13,Cc1nn2c(CNC(=O)c3ccoc3)c(-c3ccccc3)nc2s1,742
14,Clc1ccc(OCCSc2nnc(-c3ccc4c(c3)OCO4)o2)cc1,1130
15,O=C(C1=NNc2cc(Cl)ccc2S1(=O)=O)N1CCOCC1,664
16,CCOC(=O)c1cnc2c(C(F)(F)F)cccc2c1NCCN(C)C,614
17,CC(C)(C)C(=O)Nc1cnc(-c2cccc(Cl)c2)nc1,1070
18,O=C(CSc1nc(-c2cccc([N+](=O)[O-])c2)cs1)N1CCOCC1,756
19,CCn1c(CCNC(=O)c2ccc(F)c(F)c2)nc2cccnc21,641

row,SMILES,RP-LC retention time [s]
1,CN1CCN(CC2(O)CCC3(CCN(C(=O)c4ccoc4)CC3)CC2)CC1,551
2,COc1ccc(OC)c(NC(=O)c2cc(NC(=O)C(C)C)cc3nc(C)ccc23)c1,663
3,COc1cccc(NC(=O)C2CCCCN2S(=O)(=O)c2ccc(F)cc2)c1 (stereo not drawn),1000
4,Cc1nn(-c2ccc(-c3ccccc3)nn2)c(C)c1S(=O)(=O)N1CCN(C)CC1,644
5,CC1CN(c2ccc(Br)cc2)c2nc3c(c(=O)n(CCCO)c(=O)n3C)n2C1 (stereo not drawn),833
6,Cc1nc(CC(=O)Nc2nc(-c3ccc(F)cc3)cs2)cs1,863
7,CCCC(NC(=O)CCc1c(-c2ccc(Cl)cc2)nc2ccccn12)c1cccs1 (stereo not drawn),767
8,COc1ccc2nc(C(=O)NC(C)c3ccccc3)cn2n1 (stereo not drawn),803
9,CCCN1C(=O)CCc2cc(NC(=O)c3ccn(CC)n3)ccc21,756
10,Cc1nn(C)cc1C(=O)NC1CCN(c2ccc(=O)n(C)n2)C1 (stereo not drawn),562
11,COc1ccc(CNC(=O)c2c(C)sc3ccn(CC(C)C)c(=O)c23)cc1OC,865
12,CCOC(=O)c1cc(-c2ccc(OC)c(S(=O)(=O)N3CCN(c4ccccn4)CC3)c2)on1,726
13,CCSc1nc2ccc(NS(=O)(=O)Cc3cc(C)ccc3C)cc2s1,1150
14,CCc1ccccc1S(=O)(=O)N1CCC2(CC1)C(=O)N(CC)c1ccccc12,1130
15,Cc1sc(-c2cc(C(F)(F)F)on2)cc1S(=O)(=O)N1CCN(c2cccc(Cl)c2)CC1,1440
16,COc1ccc(NC(=O)c2cc(C(F)(F)F)n(C)n2)c(OC)c1,998
17,COc1ccc(N2CCN(c3nc(C(=O)NCCN4CCOCC4)cs3)CC2)cc1,615
18,COc1ccc(CNC(=O)C2CCCN(c3nnc4ccc(C(F)(F)F)cn34)C2)cc1 (stereo not drawn),783
19,O=C(Nc1cc(F)ccc1Cl)c1cnc(-c2ccc(F)cc2)nc1-c1ccncc1,1010

row,SMILES,RP-LC retention time [s]
1,CCc1c(C(=O)O)nnn1-c1ccc2c(c1)CCC2,796
2,C=CCn1c(=O)c2ccccc2n(Cc2nc(-c3cccc(C)c3)no2)c1=O,1080
3,NC(=O)C1CCN(c2ccc3cccc(OCC(=O)NCc4ccco4)c3n2)CC1,552
4,COc1ccc(CNC2=NCCNC23CCN(S(=O)(=O)c2ccc(C)cc2C)CC3)cc1,775
5,COc1cccc(-c2noc(C3CC(=O)N(c4ccc5c(c4)OCO5)C3)n2)c1OC (stereo not drawn),871
6,Cc1cc2oc(C(=O)NCC(c3ccccc3)N(C)C)cc(=O)c2cc1C (stereo not drawn),639
7,COc1ccc(C2(C(=O)N3CCC4(CC3)NCCc3c4[nH]c4ccccc34)CC2)cc1,681
8,Cc1noc(-c2ccc(OC3CN(C(=O)NCC(C)C)C3)cc2)n1,781
9,CN(C)C(=O)CC1CCOC2(CCN(C(=O)CCn3cnnn3)CC2)C1 (stereo not drawn),604
10,CCOc1cc(-c2ccc(Cl)cc2)nc2ccc(NC(C)=O)cc12,686
11,CCC(C(=O)NCCc1ccccc1)n1cnc2nc3c(cc2c1=O)CCCC3 (stereo not drawn),785
12,COC(=O)C1C(=O)C2=C(CC1C)NC(C)=C(C(=O)OC(C)C)C2c1ccccc1F (stereo not drawn),954
13,COc1ccc(-c2c(C)noc2NC(C)=O)cc1S(=O)(=O)NCC(C)c1ccccc1 (stereo not drawn),838
14,CC(C)CC(=O)N1CC(c2nc(-c3ccccc3)no2)C2(CCOCC2)C1 (stereo not drawn),896
15,O=S(=O)(Cc1ccccc1)N1CCC(Cc2nncn2-c2ccccc2)C1 (stereo not drawn),729
16,COc1ccc(Cl)cc1S(=O)(=O)N1CCC(C(=O)NCc2ccccn2)CC1,594
17,COc1ccc(C(O)CN2CCN(c3ccccc3C)CC2)cc1OC (stereo not drawn),654
18,Cn1nnc2cc(-c3noc(CN4C(=O)COc5ccccc54)n3)ccc21,803

# Next, values leading:
row,RP-LC retention time [s],SMILES
1,627,COCCC1CCN(C(=O)CN(C)C(=O)Cc2c(C)noc2C)CC1
2,618,COc1cc(OC)c(NC(=O)N2CCN(CCn3c(C(C)C)nc4cccnc43)CC2)cc1Cl
3,827,COc1cc(C(=O)N2CCN(c3cc(-c4ccc(Cl)cc4)[nH]n3)CC2)cc(OC)c1OC
4,691,CCN(CC)C(=O)c1ccc2c(c1)N(CC(=O)N1CCCCC1)C(=O)CO2
5,1040,Cc1csc(-n2nc(C)c(CC(=O)Nc3cccc(Cl)c3)c2C)n1
6,691,Cc1cc(C(=O)N2CCC(N3C(=O)C4(CCCC4)C3c3scnc3C)CC2)n(C)n1 (stereo not drawn)
7,822,CCOc1ccc2c(n1)CCN(C(=O)NC1CCCCC1)C2
8,922,Cc1cc(C)cc(C(=O)N2CCCC2COc2ccc(C(=O)NC(C)C)cc2)c1 (stereo not drawn)
9,659,COc1cc(OC)c(NC(=O)COc2cc(C)nc(N3CCCCCC3)n2)cc1Cl
10,911,CCc1ccccc1NC(=O)C1CCCN(S(=O)(=O)c2c[nH]c(C(=O)N3CCCCCC3)c2)C1 (stereo not drawn)
11,748,Cc1ccc(-c2ncn(C3CCCCC3)c2-c2ccc(C(=O)N3CCN(c4ncccn4)CC3)o2)cc1
12,829,Cc1ccc(NC(=O)N2CCC(c3nc(C(=O)N4CCCC4)c(C)o3)CC2)cc1C
13,674,CCOC(=O)C1CCCN(C(=O)c2cc3c(=O)n(C)c(=O)n(C)c3s2)C1 (stereo not drawn)
14,1070,O=S(=O)(c1cc(-c2nnc(C3CCC3)o2)co1)N1CCN(c2ccccc2F)CC1
15,923,CC(C)NC(=O)N1CCCC(c2cccc(C(=O)NCc3ccc(Cl)cc3)c2)C1 (stereo not drawn)
16,838,Cc1scc2nc(C3CCC3)nc(N3CCC(C(=O)N4CCN(c5ccccc5F)CC4)CC3)c12

row,RP-LC retention time [s],SMILES
1,759,CCc1ccccc1NC(=O)Cn1cnc2nc(N3CCCC(C(=O)NC(C)C)C3)sc2c1=O (stereo not drawn)
2,652,Cc1nn(C)cc1C(C)NC(=O)C1CCN(c2cnn(Cc3ccccc3)c(=O)c2)CC1 (stereo not drawn)
3,560,O=C(NCCCN1CCCCC1)C1CCCN(c2cnc3nccnc3c2)C1 (stereo not drawn)
4,668,COc1ccc(Br)cc1CNC(=O)C1CCCN(c2ccc(N3CCOCC3)nn2)C1 (stereo not drawn)
5,651,Cc1nc(N2CCCC2)cc(N2CCN(C(=O)c3ccccc3Br)CC2)n1
6,718,CC(=O)Nc1ccc(C(=O)N2CCC3(CC2)N=C(c2ccc(Cl)cc2)NO3)cc1
7,777,Cc1ccc(C)c(NC(=O)CN2C(=O)NC3(CCC(C)CC3)C2=O)c1 (stereo not drawn)
8,608,Cc1ccc(N2CCC(C(=O)Nc3ccc4c(c3)Cc3ccccc3-4)CC2)nn1
9,693,Cc1cccc(NC(=O)Cn2cnc3nc(N4CCC(C(=O)NC5CC5)CC4)sc3c2=O)c1C
10,887,Cc1cc(NC(=O)CN2C(=O)NC(c3ccccc3Cl)C3=C2COC3=O)ccc1Br (stereo not drawn)
11,655,Cc1nc(CNC(=O)C2CCN(C(=O)Nc3ccccc3Br)CC2)cs1
12,854,COc1cccc(NC(=O)NC2CCN(c3ccc(C)c(C)c3)C2=O)c1 (stereo not drawn)
13,1150,Cc1ccc(-c2cc3c(N4CCCC(C(=O)NCCC5=CCCCC5)C4)nccn3n2)c(C)c1 (stereo not drawn)
14,917,CSc1cccc(NC(=O)N2CCC(C)(C(=O)NCc3ccc(C)cc3)CC2)c1
15,808,COc1ccccc1NC(=O)C1CCCN1S(=O)(=O)c1cc2c(cc1C)NC(=O)CO2 (stereo not drawn)
16,622,CCN1CCN(c2nnc(-c3nc(C4CC4)no3)c3ccccc23)CC1
